Consider eight molecules from patent US20230266307A1, “BIOINFORMATICS” (University of Helsinki, priority 2020, published 2023).

No end group written: not given here.

The subject of assay [1] is ccRCC PDO. Briefly: killing assay with peptide-pulsed CD8+ T cells on ccRCC patient-derived organoids. Format: cell-based, human. An excerpt:
We focused our analysis on ccRCC samples. We used transcriptomics levels to select putative tumour antigens using PBMC and healthy kidney tissue as reference sets. Next, PBMCs from healthy volunteers were pulsed with the selected peptides, and CD8+ T cells isolated from those cells were used in the assay.
Finally, we sought to investigate the recall T cells response in the ccRCC patient. To this end, unfractionated PBMCs derived from the patient were in vitro stimulated with the peptide EVAQPGPSNR whereas unstimulated PBMCs were adopted as control. The derived CD8+T cells were then added to the ccRCC PDO showing about a 7% increase in killing activity compared to the control group.

Assay [2] relates to JY cells. Briefly: in vitro killing assay, real time cytolysis of JY cells by peptide-pulsed CD8+ T cells. In kind it is cell-based, human. The following applies: for specific cytolysis: CD8+ T cells from HLA-matched PBMCs pulsed with the peptide, coculture with JY cells. As for the experimental part:
Next, in order to determine the role of the peptides identified, a gene ontology (GO) term enrichment analysis was performed on our list of 9mer binder source proteins. We observed an enrichment in nuclear and intracellular proteins, mainly those interacting with DNA, RNA or involved in catabolic activity. […] To account for nonspecific cytotoxicity due to the effector cells per se, unstimulated PBMCs were used as a control. Real time cytolysis was then monitored.

Assay [3] concerns B16F10 cells. Briefly: intratumoral PeptiCRAd treatment of established B16F10 tumors. Format: in vivo, C57BL/6J mice. As for the experimental part: (§1) A: Scheme of the animal experiment: 4 groups of C57BL mice were formed for each tumor cell line to be tested. Mice were subcutaneously injected either with B16-OVA or B16F10 cells at day 0. Once the tumor was palpable, mice were treated with saline solution (Mock group), uncoated adenovirus (Uncoated Virus group), adenovirus coated with pool of viral peptides homologous to TRP2 (Viral PeptiCRAd, VPC) or adenovirus coated with TRP2 peptide (TRP2 PeptiCRAd, TPC).
(§2) All PeptiCRAd complexes described in this work were prepared by mixing Adenoviruses and polyK-tailed peptides according to the following protocol: 1×10^9 vp(viral particles) were mixed with 20 ug poly-K tailed peptides (resuspended in water); after vortexing, the mixture was incubated at room temperature for 15 min; PBS was added, after the incubation, up to the injection volume (50 uL/mouse), successively, the solution was vortexed again and used for assays or animal injections. For the TRP2-PeptiCRAd, 1×10^9 vp were mixed with 20ug of 6K-TRP2180-188 peptide, while the Viral-PeptiCRAd was prepared using 1×10^9 vp mixed with 5 ug of each viral 6K-peptide homologous for […]. […]
(§3) Tumor growth was followed with a digital caliper measuring two dimensions of the tumor. Successively, the volume was mathematically calculated according to the following formula: […]

In assay [4] the test system is B16-OVA cells. Briefly: intratumoral PeptiCRAd treatment of established B16-OVA tumors. In kind it is in vivo, C57BL/6J mice. The following applies: B16OVA. As for the experimental part:
as §1, §2, §3

The target in assay [5] is HLA-I complexes of the human B-cell lymphoblastoid cell line JY (human). Briefly: cell-based or functional assay.

“EVAQPGPSNR (HSPG2 gene) [peptide from ccRCC organoids, gene name HSPG2]”: the specific cytolysis entry in assay [1] (CD8+ T cells from PBMCs of healthy volunteers pulsed with the peptide, ccRCC samples) was “about 10%”. For the same molecule, the “increase in killing activity compared to the control group” value in assay [1] (CD8+ T cells from the ccRCC patient's PBMCs stimulated with the peptide, added to ccRCC PDO, control unstimulated PBMCs) is recorded as about 7%.

Consider “ILDKKVEKV [HLA-I peptide from JY cells, gene name HSP90AB3P]”, for which, in assay [2], the specific cytolysis is listed as 15%. The “specific cytolysis, comparison among the tested peptides” value in assay [2] (JY cells, CD8+ T cell-dependent killing) is “higher percentage of specific cytolysis”.

Consider “KVLEYVIKV [HLA-I peptide from JY cells, gene name MAGEA1]”, for which the specific cytolysis entry in assay [2] is “about 10%”. As for “QLVDIIEKV [HLA-I peptide from JY cells, gene name PSME3]”, in assay [2], the specific cytolysis entry is listed as “about 10%”. As for “TRP2-PeptiCRAd: adenovirus coated with 6K-TRP2180-188 peptide (KKKKKKSVYDFFVWL; also: coated on adenovirus; UniProt P29812 180-188, looked up, fragment)”, the tumor progression entry was “significantly reduced the tumor progression” in assay [3] (B16F10, intratumoral, compared to saline buffer or uncoated virus) and “significantly reduced the tumor progression” in assay [4] (intratumoral, compared to saline buffer or uncoated virus). The number of responders entry is “significantly higher number of responders” in assay [3] (B16F10, tumor volume below the median at endpoint) and “significantly higher number of responders” in assay [4] (tumor volume below the median at endpoint).

B1: … (gene name PSME3) (peptide)
peptide: QLVDIIEKV
modifications: not fully specified
Regarding B1, the specific cytolysis of JY cells by CD8+ T cells pulsed with the peptide in assay [5] stood at 10%.

B2: … (gene name HSP90AB3P) (peptide)
peptide: ILDKKVEKV
In assay [5], B2 gave a specific cytolysis of JY cells by CD8+ T cells pulsed with the peptide of 15%.

B3: … (gene name MAGEA1) (peptide)
peptide: KVLEYVIKV
B3: in assay [5], the specific cytolysis of JY cells by CD8+ T cells pulsed with the peptide came to 10%.
